Data set [1] can be described thus: physchem. The data set is classed as physicochemical. The settings on record: thermodynamic from solid, read-out: CFZ saturation solubility.
Data set [2] in a line: Stress testing of micronized CFZ with excipient blends (compatibility, HPLC assay and related substances). The data set is classed as physicochemical. Here is the method: Clofazimine degradation was assessed using the high pressure liquid chromatography (HPLC) method published in the United States Pharmacopeia monograph for the drug (U.S.P., 2021) The mobile phase consisted of a 65:35 mixture of acetonitrile and an aqueous buffer consisting of 4.5 g/L sodium dodecyl sulfate, 1.7 g/L tetrabutylammonium hydrogen sulfate and 21.8 g/L Na2HPO4 adjusted to pH 3.0. Flow rate was 1.0 mL/min and infection volume was 20 μL. A LiChromspher® RP-8 100 column (250×4.6, 5 μm) (Millipore Sigma) was used. Measurements were performed using an Agilent 1100 HPLC with diode array detector set at 280 nm. […] Hydrophobic PTFE 0.22 μm filters were used for sample filtration prior to analysis.
Stress testing of micronized CFZ in combination with commercially available tableting excipient blends was performed to establish potential mechanisms of drug degradation and streamline excipient selection for mini-tablet preparation. Two different blends were assessed: Prosolv® EasyTab SP (JRS Pharma) and Ludipress® (BASF).
Additionally, Eudragit® E PO was assessed, as a potential candidate for functional coating of the mini-tablets to prevent CFZ release in the saliva and subsequent staining of the mouth. Binary mixtures of micronized CFZ and excipient blends and micronized CFZ and Eudragit E PO were prepared at 1:1 weight ratios. Blends of CFZ with Prosolv EasyTab SP, Ludipress, or Eudragit E PO were left open or in closed HPDE vials and stored for 18 days at 70° C./20% relative humidity (RH) or 70° C./75% RH, which was the thermal equivalent of 6 months of storage. As a control, micronized CFZ alone and each excipient blend alone were stored open at each condition.
HPLC analysis was performed on day 0 for CFZ alone and CFZ with each excipient, as well as on day 18 for the same samples at each temperature and humidity condition. Assay values (% recovery) for all samples was determined by comparing peak area to a reference standard and correcting for sample water content measured by Karl Fischer titration method, and related substances were reported by relative retention time (RRT) to the reference CFZ peak.

The nature of data set [3]: Particle size distribution of milled powder by laser diffraction. It is filed as physicochemical. As to conditions: jet-milled powder, RODOS 4 bar. The method, then: Clofazimine (CFZ) (Midas Pharma GmbH) was micronized by Lonza Group AG using a 10-inch spiral jet mill at 3 kg/hr feed rate and 100 psi grinding pressure. Particle size distribution of the milled powder was determined using a laser diffractor (HELOS, Sympatec GmbH) with RODOS dry powder disperser set at 4 bar dispersion pressure and 20% rotation.

The conditions of data set [4]: 1 mg/kg per day, average 105.6 days, average age 5.8 years; cited from earlier work.

The structures appear in SMILES notation. Converted amounts (≈) assume the structure as drawn. Read-outs that look alike come from different tables or passages of the source.

As for `CC(C)/N=c1\cc2n(-c3ccc(Cl)cc3)c3ccccc3nc-2cc1Nc1ccc(Cl)cc1` [CFZ, clofazimine], the solubility in data set [1] (fassgf or other biorelevant, in FaSSGF) worked out at 0.092 ± 0.004 µg/mL (≈ 0.194 µM). In data set [1] (fassgf or other biorelevant, in FeSSGF), the solubility stood at 20.1 ± 1.86 µg/mL (≈ 42.5 µM). In addition, the solubility in data set [1] (fessif, in FeSSIF) was found to be 14.9 ± 1.5 µg/mL (≈ 31.5 µM). In addition, in data set [2] (70 C./20% RH, Open, 18 days), the “Impurity (% Area) RRT 0.82” value was 0.113 % Area and the “Impurity (% Area) RRT 0.88” value is 0.117 % Area. Moreover, in data set [2] (70 C./75% RH, Open, 18 days), the “Impurity (% Area) RRT 0.82” value stood at 0.096 % Area, the “Impurity (% Area) RRT 0.88” value is listed as 0.126 % Area and the “Impurity (% Area) RRT 0.94” value is reported as under 0.05 % Area. Further, in data set [2] (Initial (day 0)), the “Impurity (% Area) RRT 0.82” value stood at 0.096 % Area and the “Impurity (% Area) RRT 0.88” value was 0.109 % Area. Further, in data set [3], the X10 diameter worked out at 0.66 μm, the X50 diameter was determined as 1.47 μm and the X90 diameter was 3.50 μm. In addition, the adverse effects result in data set [4] is “limited to skin discoloration and gastrointestinal symptoms”.

These data come from US20260207514A1, “Clofazimine Mini-Tablets for Treatment of Tuberculosis in Pediatrics” (Via Therapeutics, LLC, priority 2022, published 2026).
